According to PubChem BioAssay AID1963861 (Molecular Pharmacology Branch, DTP, NCI, 2024):
Where “and” joins values, the source holds several entries; their conditions need not be identical. Identical values can stand only once.

Tested on: 885724-159-R-J1-PDC KRAS PDC multicell spheroid viability
Assay: Anticancer human tumor 885724-159-R-J1-PDC patient-derived pancreatic adenocarcinoma cell line growth inhibition [KRAS2]
Conditions: for viability, T/C: stronger effect = lower value
Outline: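 KRAS-mutant tumor cells were grown as spheroids with HUVEC endothelial cells and human MSCs as stroma. Targeted agents were tested alone and with KRAS pathway inhibitors. Doses started at or near clinical Cmax, or 10 microM, descending half-log.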

[1] = curve of first compound, second compound 0.1 µM
[2] = curve of first compound, second compound 0.316 µM
[3] = curve of first compound, second compound 1 µM
[4] = curve of first compound, second compound 3.16 µM
[5] = curve of first compound, second compound 10 µM
[6] = second compound 0.1 µM, first compound 0.01 µM
[7] = second compound 0.1 µM, first compound 0.0316 µM
[8] = second compound 0.1 µM, first compound 0.1 µM
[9] = second compound 0.1 µM, first compound 0.316 µM
[10] = second compound 0.1 µM, first compound 1 µM
[11] = second compound 0.1 µM, first compound 3.16 µM
[12] = second compound 0.316 µM, first compound 0.01 µM
[13] = second compound 0.316 µM, first compound 0.0316 µM
[14] = second compound 0.316 µM, first compound 0.1 µM
[15] = second compound 0.316 µM, first compound 0.316 µM
[16] = second compound 0.316 µM, first compound 1 µM
[17] = second compound 0.316 µM, first compound 3.16 µM
[18] = second compound 1 µM, first compound 0.01 µM
[19] = second compound 1 µM, first compound 0.0316 µM
[20] = second compound 1 µM, first compound 0.1 µM
[21] = second compound 1 µM, first compound 0.316 µM
[22] = second compound 1 µM, first compound 1 µM
[23] = second compound 1 µM, first compound 3.16 µM
[24] = second compound 3.16 µM, first compound 0.01 µM
[25] = second compound 3.16 µM, first compound 0.0316 µM
[26] = second compound 3.16 µM, first compound 0.1 µM
[27] = second compound 3.16 µM, first compound 0.316 µM
[28] = second compound 3.16 µM, first compound 1 µM
[29] = second compound 3.16 µM, first compound 3.16 µM
[30] = second compound 10 µM, first compound 0.01 µM
[31] = second compound 10 µM, first compound 0.0316 µM
[32] = second compound 10 µM, first compound 0.1 µM
[33] = second compound 10 µM, first compound 0.316 µM
[34] = second compound 10 µM, first compound 1 µM
[35] = second compound 10 µM, first compound 3.16 µM
[36] = second compound 0.1 µM, first compound 10 µM
[37] = second compound 0.316 µM, first compound 10 µM
[38] = second compound 1 µM, first compound 10 µM
[39] = second compound 3.16 µM, first compound 10 µM
[40] = second compound 10 µM, first compound 10 µM
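Further: spheroids exposed to agents for 7 days before readout.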

CC1COCCN1c1cc(-c2ccnn2C)c2ccnc(-c3ccn[nH]3)c2n1 (stereo unspecified) + CC1OCC2(CCN(c3cnc(Sc4ccnc(N)c4Cl)c(N)n3)CC2)C1N
IC50 [1]: > 3160 nM
IC50 [2]: > 3160 nM
IC50 [3]: 852 nM
IC50 [4]: 573 nM
IC50 [5]: 236 nM
viability, T/C [6]: 91.3%
viability, T/C [7]: 87.2%
viability, T/C [8]: 67.6%
viability, T/C [9]: 60.1%
viability, T/C [10]: 53%
viability, T/C [11]: 52.1%
viability, T/C [12]: 81%
viability, T/C [13]: 75.5%
viability, T/C [14]: 61.4%
viability, T/C [15]: 60.2%
viability, T/C [16]: 54.7%
viability, T/C [17]: 49.8%
viability, T/C [18]: 80.7%
viability, T/C [19]: 69.1%
viability, T/C [20]: 63%
viability, T/C [21]: 58.4%
viability, T/C [22]: 47.9%
viability, T/C [23]: 42.7%
viability, T/C [24]: 73.5%
viability, T/C [25]: 67.2%
viability, T/C [26]: 56.9%
viability, T/C [27]: 56%
viability, T/C [28]: 45.9%
viability, T/C [29]: 42.2%
viability, T/C [30]: 65.3%
viability, T/C [31]: 59.7%
viability, T/C [32]: 53.8%
viability, T/C [33]: 49.2%
viability, T/C [34]: 43.2%
viability, T/C [35]: 41%

CN(C)C/C=C/C(=O)Nc1cc2c(Nc3ccc(F)c(Cl)c3)ncnc2cc1O[C@H]1CCOC1
viability, T/C (compound 0.000316 µM): 107% [middle of 5 runs]
viability, T/C (compound 0.001 µM): 104% [middle of 5 runs]
viability, T/C (compound 0.01 µM): 95.3% [middle of 5 runs]
viability, T/C (compound 0.0316 µM): 81.5% [middle of 5 runs]
viability, T/C (compound 0.1 µM): 77.5% [middle of 5 runs]
IC50 (curve of compound): > 100 nM

Cn1nccc1Nc1nccc(-c2cc3c(s2)C(C)(C)N(CCN2CCOCC2)C3=O)n1 + CC1OCC2(CCN(c3cnc(Sc4ccnc(N)c4Cl)c(N)n3)CC2)C1N
IC50 [1]: 330 nM
IC50 [2]: 239 nM
IC50 [3]: 223 nM
IC50 [4]: 191 nM
IC50 [5]: 105 nM
viability, T/C [7]: 87.4%
viability, T/C [8]: 68.4%
viability, T/C [9]: 50.4%
viability, T/C [10]: 38.2%
viability, T/C [11]: 32.8%
viability, T/C [36]: 28.8%
viability, T/C [13]: 82.8%
viability, T/C [14]: 65.9%
viability, T/C [15]: 43.2%
viability, T/C [16]: 35.7%
viability, T/C [17]: 30.7%
viability, T/C [37]: 26.6%
viability, T/C [19]: 74.9%
viability, T/C [20]: 61.7%
viability, T/C [21]: 44.8%
viability, T/C [22]: 33.3%
viability, T/C [23]: 27.2%
viability, T/C [38]: 26%
viability, T/C [25]: 64.7%
viability, T/C [26]: 59.9%
viability, T/C [27]: 42.2%
viability, T/C [28]: 28.8%
viability, T/C [29]: 25.8%
viability, T/C [39]: 24.1%
viability, T/C [31]: 57%
viability, T/C [32]: 51.4%
viability, T/C [33]: 35.9%
viability, T/C [34]: 26.6%
viability, T/C [35]: 22.4%
viability, T/C [40]: 20.6%

CC1(C)CCC(CN2CCN(c3ccc(C(=O)NS(=O)(=O)c4ccc(NCC5CCOCC5)c([N+](=O)[O-])c4)c(Oc4cnc5[nH]ccc5c4)c3)CC2)=C(c2ccc(Cl)cc2)C1 + CC1OCC2(CCN(c3cnc(Sc4ccnc(N)c4Cl)c(N)n3)CC2)C1N
IC50 [1]: 4310 nM
IC50 [2]: 3450 nM
IC50 [3]: 2850 nM
IC50 [4]: 1620 nM
IC50 [5]: 1210 nM
viability, T/C [7]: 88%
viability, T/C [8]: 88.3%
viability, T/C [9]: 89%
viability, T/C [10]: 74.8%
viability, T/C [11]: 58.2%
viability, T/C [36]: 29.7%
viability, T/C [13]: 82.3%
viability, T/C [14]: 83.8%
viability, T/C [15]: 75.4%
viability, T/C [16]: 74.2%
viability, T/C [17]: 51.7%
viability, T/C [37]: 22.1%
viability, T/C [19]: 77.8%
viability, T/C [20]: 75.2%
viability, T/C [21]: 68.5%
viability, T/C [22]: 62.2%
viability, T/C [23]: 51.1%
viability, T/C [38]: 17.6%
viability, T/C [25]: 64.1%
viability, T/C [26]: 63.7%
viability, T/C [27]: 63.2%
viability, T/C [28]: 57.4%
viability, T/C [29]: 39.7%
viability, T/C [39]: 12%
viability, T/C [31]: 58%
viability, T/C [32]: 58.3%
viability, T/C [33]: 60.5%
viability, T/C [34]: 53.5%
viability, T/C [35]: 30.4%
viability, T/C [40]: 3.18%

CC1(C)CCC(CN2CCN(c3ccc(C(=O)NS(=O)(=O)c4ccc(NCC5CCOCC5)c([N+](=O)[O-])c4)c(Oc4cnc5[nH]ccc5c4)c3)CC2)=C(c2ccc(Cl)cc2)C1
viability, T/C (compound 0.0316 µM): 100% [middle of 5 runs]
viability, T/C (compound 0.1 µM): 103% [middle of 5 runs]
viability, T/C (compound 0.316 µM): 100% [middle of 5 runs]
viability, T/C (compound 1 µM): 97.1% [middle of 5 runs]
IC50 (curve of compound): 9.05 µM [middle of 5 runs]

CC(=O)Nc1cccc(-n2c(=O)n(C3CC3)c(=O)c3c(Nc4ccc(I)cc4F)n(C)c(=O)c(C)c32)c1 + CC1OCC2(CCN(c3cnc(Sc4ccnc(N)c4Cl)c(N)n3)CC2)C1N
IC50 [1]: 0.715 nM
IC50 [2]: 0.532 nM
IC50 [3]: 0.328 nM
IC50 [4]: 0.213 nM
IC50 [5]: 0.106 nM
viability, T/C (second compound 0.1 µM, first compound 0.0001 µM): 81.5%
viability, T/C (second compound 0.1 µM, first compound 0.000316 µM): 62%
viability, T/C (second compound 0.1 µM, first compound 0.001 µM): 44.4%
viability, T/C (second compound 0.1 µM, first compound 0.00316 µM): 33.3%
viability, T/C [6]: 24.1%
viability, T/C [7]: 17.9%
viability, T/C (second compound 0.316 µM, first compound 0.0001 µM): 73.6%
viability, T/C (second compound 0.316 µM, first compound 0.000316 µM): 57.4%
viability, T/C (second compound 0.316 µM, first compound 0.001 µM): 41.3%
viability, T/C (second compound 0.316 µM, first compound 0.00316 µM): 28.8%
viability, T/C [12]: 23.2%
viability, T/C [13]: 15.9%
viability, T/C (second compound 1 µM, first compound 0.0001 µM): 64.7%
viability, T/C (second compound 1 µM, first compound 0.000316 µM): 51.6%
viability, T/C (second compound 1 µM, first compound 0.001 µM): 34.8%
viability, T/C (second compound 1 µM, first compound 0.00316 µM): 28%
viability, T/C [18]: 18.4%
viability, T/C [19]: 15%
viability, T/C (second compound 3.16 µM, first compound 0.0001 µM): 57%
viability, T/C (second compound 3.16 µM, first compound 0.000316 µM): 47.6%
viability, T/C (second compound 3.16 µM, first compound 0.001 µM): 30.3%
viability, T/C (second compound 3.16 µM, first compound 0.00316 µM): 24.3%
viability, T/C [24]: 17.5%
viability, T/C [25]: 14.3%
viability, T/C (second compound 10 µM, first compound 0.0001 µM): 50.6%
viability, T/C (second compound 10 µM, first compound 0.000316 µM): 38.6%
viability, T/C (second compound 10 µM, first compound 0.001 µM): 26%
viability, T/C (second compound 10 µM, first compound 0.00316 µM): 19.6%
viability, T/C [30]: 13.8%
viability, T/C [31]: 11.7%

CC1(C)CCC(CN2CCN(c3ccc(C(=O)NS(=O)(=O)c4ccc(NCC5CCOCC5)c([N+](=O)[O-])c4)c(Oc4cnc5[nH]ccc5c4)c3)CC2)=C(c2ccc(Cl)cc2)C1 + CNCc1ccccc1-c1csc(C(C)Nc2nc(C)nc3cc(OC)c(OC)cc23)c1
IC50 [1]: 6720 nM
IC50 [2]: 5820 nM
IC50 [3]: 5300 nM
IC50 [4]: < 31.6 nM
IC50 [5]: < 31.6 nM
viability, T/C [7]: 96.3%
viability, T/C [8]: 89.6%
viability, T/C [9]: 88.8%
viability, T/C [10]: 88.5%
viability, T/C [11]: 82.7%
viability, T/C [36]: 32.6%
viability, T/C [13]: 86.6%
viability, T/C [14]: 90.3%
viability, T/C [15]: 85.7%
viability, T/C [16]: 91%
viability, T/C [17]: 82.4%
viability, T/C [37]: 21%
viability, T/C [19]: 101%
viability, T/C [20]: 93.6%
viability, T/C [21]: 89.1%
viability, T/C [22]: 82.3%
viability, T/C [23]: 82.9%
viability, T/C [38]: 12.1%
viability, T/C [25]: 1.12%
viability, T/C [26]: 0.55%
viability, T/C [27]: 0.55%
viability, T/C [28]: 0.79%
viability, T/C [29]: 0.62%
viability, T/C [39]: 1.03%
viability, T/C [31]: 0.42%
viability, T/C [32]: 1.23%
viability, T/C [33]: 0.37%
viability, T/C [34]: 0.2%
viability, T/C [35]: 0.17%
viability, T/C [40]: 0.2%

CNCc1ccccc1-c1csc(C(C)Nc2nc(C)nc3cc(OC)c(OC)cc23)c1 (stereo unspecified)
viability, T/C (compound 0.1 µM): 101% [middle of 15 runs]
viability, T/C (compound 0.316 µM): 101% [middle of 15 runs]
viability, T/C (compound 10 µM): 0.23% [middle of 13 runs]
IC50 (compound alone, run of 08/26/2021): 1.65 µM [middle of 5 runs]
IC50 (compound alone, run of 09/02/2021): 1600 nM and 1720 nM and 1800 nM
